Values of other authors as cited in patent US20050020810A1, “Peptides which target tumor and endothelial cells, compositions and uses thereof” (priority 2002, published 2005).

Tests used:
MatLyLu cells = settings: rat model
CT26 colon cancer = settings: in combination with 5-FU infusion

## Ac—PHSCN—NH2
MatLyLu cells
  metastasis of MatLyLu cells: completely inhibits
CT26 colon cancer
  survival: improved survival
DU145
  DU145 invasion: completely inhibits
